Results published in patent US20110091875A1, “THREE-COMPONENT GENE EXPRESSION REPORTING SYSTEM FOR MAMMALIAN CELLS AND APPLICATIONS OF THE SAME” (National Chung Cheng University, priority 2009, published 2011).

Experiments:
Assay type in all cases: cell-based, human
[1] = system: Trip10 promoter; assay: Reactivation of inactivated Trip10 promoter by 5-aza-2′-deoxycytidine and 17β-estradiol (EGFP in SC6 cells); conditions: me_Trip10 DNA transfected SC6 cells
Procedure: The obtained photographs were analyzed via an image analyzing software Scion Image. Briefly, the photographs were divided into several regions by the Scion Image software, in which the EGFP signal in a region visually observed as a black region was defined as 0, and the EGFP signal in a region that was visually observed to have the strongest fluorescence was defined as 255. Thereafter, the EGFP intensity was obtained by summing up the EGFP signals in all the regions, followed by dividing by the total area of said regions. […] The transfection-treated SC6 cells, which were harvested two days after the third time of transfection according to the procedures set forth in the section, entitled “2. […] From the second time of medium change (Day 4), the screening medium was further supplemented with 10 ng/mL 17β-estradiol. Expression of EGFP in the SC6 cells was observed using an inverted fluorescence microscope prior to making the medium change, and photographs were recorded using a digital camera connected to the inverted fluorescence microscope.

[2] = system: SC6 cells; assay: Growth of SC6 cells in medium with 5-aza-2′-deoxycytidine (cytotoxicity); conditions: screening medium with 25 μM 5-aza-2′-deoxycytidine
Procedure: Transfection of SC6 cells with me_Trip10 DNA,” of the above Example 4, were plated into each well of 6-well plates (1×10^4 cells/2 mL screening medium/well), followed by cultivation overnight in an incubator (37° C., 95% O2/5% CO2) to permit cell attachment. 10 mM 5-aza-2′-deoxycytidine (dissolved in DMSO) was subsequently added into each well to reach a final concentration of 25 μM (Day 0). Thereafter, medium changes were performed every two days with fresh screening medium supplemented with 25 μM 5-aza-2′-deoxycytidine. From the second time of medium change (Day 4), the screening medium was further supplemented with 10 ng/mL 17β-estradiol. Expression of EGFP in the SC6 cells was observed using an inverted fluorescence microscope prior to making the medium change, and photographs were recorded using a digital camera connected to the inverted fluorescence microscope.

[3] = system: Trip10 promoter; assay: Effect of 17β-estradiol upon the Trip10 promoter against DNA methylation (EGFP in SC6 cells); conditions: 10 ng/mL 17β-estradiol before; for EGFP intensity compared to 0 hr: during and after transfection with me_Trip10 DNA
Procedure: The obtained photographs were analyzed via an image analyzing software Scion Image. Briefly, the photographs were divided into several regions by the Scion Image software, in which the EGFP signal in a region visually observed as a black region was defined as 0, and the EGFP signal in a region that was visually observed to have the strongest fluorescence was defined as 255. Thereafter, the EGFP intensity was obtained by summing up the EGFP signals in all the regions, followed by dividing by the total area of said regions. Finally, the EGFP intensity at 0 hr was defined as 100%, and the EFGP intensity percentages of the EGFP intensities at other time points relative to that at 0 hr were calculated.
First, a proper amount of 17β-estradiol was dissolved in alcohol to form a stock solution having a concentration of 10 mg/mL. The SC6 cells as obtained in the above Example 3 were plated into each well of 6-well plates (1×10^5 cells/2 mL screening medium/well), followed by cultivation overnight in an incubator (37° C., […]/5% CO2) to permit cell attachment. […] After cultivation at 37° C. for 24 hours, the SC6 cells were transfected with 0.4 μg of single-stranded me_Trip10 DNA according to the transfection treatment as described in the section, entitled “2. Transfection of SC6 cells with me_Trip10 DNA” of the above Example 4, except that the growth medium was supplemented with 10 ng/mL 17β-estradiol and was added into each well until a final volume of 1 mL was reached.
The first time at which the liquid in each well was added to reach 1 mL was defined as Hour 0. Expression of EGFP in the SC6 cells was observed using an inverted fluorescence microscope at 0 hr, 24 hrs, 72 hrs and 120 hrs, respectively, and photographs were recorded using a digital camera connected to the inverted fluorescence microscope.

| SMILES | EGFP intensity compared to Day 2 (100%) ([1]; Day 4, 25 μM 5-aza-2′-deoxycytidine alone) | reactivation of the Trip10 promoter / reversal of its methylation [1] | cytotoxicity [2] | methylation of Trip10 promoter induced by me_Trip10 DNA ([3]; during and after transfection) | EGFP intensity compared to 0 hr ([3]; 72 hrs) | EGFP intensity compared to 0 hr ([3]; other time points (24 hrs, 120 hrs)) |
| --- | --- | --- | --- | --- | --- | --- |
| Nc1ncn([C@H]2C[C@H](O)[C@@H](CO)O2)c(=O)n1 [5-aza-2′-deoxycytidine] | over 100% | insufficient to reactivate the Trip10 promoter | no cytotoxicity | – | – | – |
| C[C@]12CC[C@@H]3c4ccc(O)cc4CC[C@H]3[C@@H]1CC[C@@H]2O [17β-estradiol] | – | – | – | could be prevented from methylation | about 150% | around 100% |
